Data taken from ChEMBL document CHEMBL1201862, “PubChem BioAssay data set” (2004).
Activity calls are given as the source filed them.

Key:
[1] = inhibitors of intracellular T. cruzi replication, confirmation, NIH3T3 host cells, beta-gal luminescence (AID 2044); type: functional, cell-based;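 note: intracellular parasites grown in NIH/3T3 mouse fibroblasts as host cells; luminescent beta-galactosidase reporter signal from transgenic T. cruzi replicating inside host cells; inhibitors lower the luminescence signal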
[2] = cytotoxicity toward NIH3T3 fibroblasts, dose response, counter-screen, cell-based, ATP luminescence, mouse fibroblasts (AID 2010); type: functional;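 note: cells exposed to compound for about 90 hours before reading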
[3] = molecular target: Heat shock protein HSP 90-alpha (Homo sapiens, UniProt P07900); type: functional, organism-based
[4] = molecular target: Arf-GAP with SH3 domain, ANK repeat and PH domain-containing protein 1 (Homo sapiens, UniProt Q9ULH1); type: functional;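 note: biochemical fluorescence polarization dose–response screen measuring inhibition of ASAP1; ASAP1 GAP domain stimulating GTP hydrolysis by truncated human ARF1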
[5] = molecular target: Hepatocyte nuclear factor 4-alpha (Homo sapiens, UniProt P41235); type: functional, cell-based;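 note: biochemical luminescence-based dose-response counterscreen measuring inhibition of HNF4 dimerization, run alongside a screen for blockers of ABHD5–perilipin-5 interaction; split luciferase complementation of HNF4 fusion proteins in cell lysate measuring dimerization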
[6] = molecular target: T1, Endoribonuclease toxin MazF (Escherichia coli K-12, UniProt P0AE70); experiment: MazF toxin RNase activators, dose response, biochemical, fluorescence, single-stranded RNA substrate, uHTS hits (AID 588481); type: functional
T1 sequence (P0AE70 whole entry): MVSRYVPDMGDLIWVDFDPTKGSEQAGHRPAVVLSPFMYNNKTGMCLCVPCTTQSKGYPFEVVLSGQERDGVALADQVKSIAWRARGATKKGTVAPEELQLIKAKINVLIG

[7] = molecular target: T1, Endoribonuclease toxin MazF; experiment: fluorescent RNA oligo signal without MazF, dose response, counter-screen for MazEF activator project, biochemical, fluorescence, single-stranded RNase substrate (AID 588502); type: functional
[8] = inhibitors of firefly luciferase expression or activity, dose response, H4 neuroglioma cells, luminescence (AID 1990); type: functional, cell-based
[9] = Luminescence Cell-Based Dose Response HTS to Identify Inhibitors of 5'UTR Stem-Loop Driven Prion Protein mRNA Translation in H4 Neuroglioblastoma Cells. [Related pubchem assays: 1827 (Project Summary), 1813 (Primary HTS)]; type: functional
[10] = inhibitors of SNCA 5'UTR-driven reporter translation, confirmation, H4 neuroglioma cells, luminescence (AID 1988); type: functional, cell-based
HEK293 = experiment: inhibitors of LMP1-driven NF-kB reporter, dose response, cell-based, HEK293, luciferase, cherry-pick (AID 588343); type: functional; details: Homo sapiens
[11] = A549 cell cytotoxicity, dose response, cytotoxicity control, plate reader, cherry-pick, antagonist series (AID 743412); type: functional, cell-based
[12] = LGR2 antagonists, dose response, cell-based, HEK293, CRE-luciferase reporter, cherry pick, set 2 (AID 743343); type: functional;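 note: transfected cells were stimulated with diluted bursicon conditioned medium after compound addition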
[13] = MC4R antagonists, dose response, counter-screen for LGR2 antagonist project, cell-based, plate reader, cherry pick (AID 743444); type: functional;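 note: transfected HEK 293 cells stimulated with alpha-MSH peptide; potency of inhibitors of the alpha-MSH evoked signal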
[14] = HEK293 cell cytotoxicity, dose response, cytotoxicity control, plate reader, cherry-picked samples (AID 743446); type: functional, cell-based
[15] = molecular target: T2, Aryl hydrocarbon receptor (Homo sapiens, UniProt P35869); details: Potency;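 note: confirmatory quantitative high-throughput screen measuring activation of the AhR signaling pathway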
T2 sequence (P35869 whole entry): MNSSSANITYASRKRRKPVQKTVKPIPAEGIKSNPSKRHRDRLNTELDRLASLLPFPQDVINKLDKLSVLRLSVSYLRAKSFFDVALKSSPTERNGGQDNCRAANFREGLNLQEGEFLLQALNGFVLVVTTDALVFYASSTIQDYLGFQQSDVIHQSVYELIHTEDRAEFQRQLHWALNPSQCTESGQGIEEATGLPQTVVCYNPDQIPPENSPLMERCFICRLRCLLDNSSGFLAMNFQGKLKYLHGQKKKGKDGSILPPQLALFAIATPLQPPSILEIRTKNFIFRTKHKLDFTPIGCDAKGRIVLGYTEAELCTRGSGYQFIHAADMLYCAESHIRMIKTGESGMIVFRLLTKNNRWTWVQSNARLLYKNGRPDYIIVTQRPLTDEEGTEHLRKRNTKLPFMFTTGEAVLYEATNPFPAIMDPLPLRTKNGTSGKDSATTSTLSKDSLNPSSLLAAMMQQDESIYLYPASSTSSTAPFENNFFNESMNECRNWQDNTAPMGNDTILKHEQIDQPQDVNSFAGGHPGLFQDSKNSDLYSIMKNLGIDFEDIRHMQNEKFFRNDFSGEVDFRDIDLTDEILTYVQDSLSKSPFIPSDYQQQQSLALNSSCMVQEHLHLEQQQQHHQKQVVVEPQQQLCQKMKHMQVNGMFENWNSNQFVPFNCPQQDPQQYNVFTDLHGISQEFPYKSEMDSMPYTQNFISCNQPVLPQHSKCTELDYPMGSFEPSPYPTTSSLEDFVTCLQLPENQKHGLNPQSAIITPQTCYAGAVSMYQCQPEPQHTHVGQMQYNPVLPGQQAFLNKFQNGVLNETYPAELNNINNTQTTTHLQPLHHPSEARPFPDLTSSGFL

[16] = molecular target: 26S proteasome non-ATPase regulatory subunit 14 (Homo sapiens, UniProt O00487); experiment: inhibition of proteasome subunit RPN11 – biochemical, fluorescence polarization, uHTS hits, confirmation (AID 602368); type: functional
[17] = molecular target: 72 kDa type IV collagenase (Homo sapiens, UniProt P08253); experiment: Dose Response validation of uHTS RPN11 inhibitor hits using a MMP-2 Fluorescence assay.; type: functional
Prothrombin = Prothrombin (Bos taurus, UniProt P00735); experiment: thrombin inhibition, dose response, biochemical, fluorescence polarization, uHTS hits (AID 602369); type: functional
[18] = molecular target: Dual specificity protein kinase CLK2 (Homo sapiens, UniProt P49760); type: functional
[19] = molecular target: Dual specificity protein kinase CLK4 (Homo sapiens, UniProt Q9HAZ1); type: functional
[20] = molecular target: Dual specificity tyrosine-phosphorylation-regulated kinase 1A (Homo sapiens, UniProt Q13627); type: functional;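 note: measured against DYRK1A as one member of a broad kinome profiling panel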

Sequence of Arf-GAP with SH3 domain, ANK repeat and PH domain-containing protein 1 (Q9ULH1 whole entry, the tested form may be a part): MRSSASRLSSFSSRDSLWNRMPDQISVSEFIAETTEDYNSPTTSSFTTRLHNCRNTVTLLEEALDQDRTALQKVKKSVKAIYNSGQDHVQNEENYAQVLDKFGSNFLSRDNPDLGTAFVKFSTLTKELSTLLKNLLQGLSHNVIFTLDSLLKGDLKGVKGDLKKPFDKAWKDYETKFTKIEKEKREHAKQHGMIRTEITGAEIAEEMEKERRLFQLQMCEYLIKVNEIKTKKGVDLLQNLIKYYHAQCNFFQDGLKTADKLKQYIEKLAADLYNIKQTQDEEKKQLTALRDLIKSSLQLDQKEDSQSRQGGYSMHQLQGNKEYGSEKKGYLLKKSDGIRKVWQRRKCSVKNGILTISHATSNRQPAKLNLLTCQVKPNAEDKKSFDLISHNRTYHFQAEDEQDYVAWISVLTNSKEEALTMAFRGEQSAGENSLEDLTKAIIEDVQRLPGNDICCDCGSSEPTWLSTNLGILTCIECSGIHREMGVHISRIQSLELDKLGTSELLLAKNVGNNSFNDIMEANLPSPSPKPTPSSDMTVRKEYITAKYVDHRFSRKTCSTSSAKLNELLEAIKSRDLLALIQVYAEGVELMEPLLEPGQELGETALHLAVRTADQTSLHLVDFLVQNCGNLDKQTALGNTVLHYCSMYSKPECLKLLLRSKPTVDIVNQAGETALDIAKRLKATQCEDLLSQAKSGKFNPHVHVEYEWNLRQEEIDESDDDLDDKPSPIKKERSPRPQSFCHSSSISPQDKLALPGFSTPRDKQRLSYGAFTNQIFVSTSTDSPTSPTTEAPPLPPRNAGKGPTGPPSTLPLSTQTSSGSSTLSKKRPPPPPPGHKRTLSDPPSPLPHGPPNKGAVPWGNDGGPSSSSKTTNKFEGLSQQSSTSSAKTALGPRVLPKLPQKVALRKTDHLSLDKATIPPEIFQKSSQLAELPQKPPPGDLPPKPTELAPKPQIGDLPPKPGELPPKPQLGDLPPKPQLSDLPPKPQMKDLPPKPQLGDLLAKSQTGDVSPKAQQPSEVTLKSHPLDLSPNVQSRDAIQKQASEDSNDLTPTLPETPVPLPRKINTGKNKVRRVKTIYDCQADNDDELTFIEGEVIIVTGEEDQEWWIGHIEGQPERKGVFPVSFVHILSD
Sequence of Hepatocyte nuclear factor 4-alpha (P41235 whole entry, the tested form may be a part): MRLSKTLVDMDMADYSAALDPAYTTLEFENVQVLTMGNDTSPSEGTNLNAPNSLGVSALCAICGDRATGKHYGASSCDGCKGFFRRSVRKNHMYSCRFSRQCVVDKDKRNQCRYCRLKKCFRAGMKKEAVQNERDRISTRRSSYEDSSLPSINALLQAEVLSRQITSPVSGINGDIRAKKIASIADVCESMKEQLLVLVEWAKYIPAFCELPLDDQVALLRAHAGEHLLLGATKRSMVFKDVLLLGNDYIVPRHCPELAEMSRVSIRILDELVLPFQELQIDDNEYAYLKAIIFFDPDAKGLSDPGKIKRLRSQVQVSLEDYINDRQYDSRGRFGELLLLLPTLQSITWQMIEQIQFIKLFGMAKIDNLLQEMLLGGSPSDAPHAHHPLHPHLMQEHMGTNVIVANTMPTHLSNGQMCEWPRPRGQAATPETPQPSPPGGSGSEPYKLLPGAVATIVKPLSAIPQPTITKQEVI
Sequence of 72 kDa type IV collagenase (P08253 whole entry): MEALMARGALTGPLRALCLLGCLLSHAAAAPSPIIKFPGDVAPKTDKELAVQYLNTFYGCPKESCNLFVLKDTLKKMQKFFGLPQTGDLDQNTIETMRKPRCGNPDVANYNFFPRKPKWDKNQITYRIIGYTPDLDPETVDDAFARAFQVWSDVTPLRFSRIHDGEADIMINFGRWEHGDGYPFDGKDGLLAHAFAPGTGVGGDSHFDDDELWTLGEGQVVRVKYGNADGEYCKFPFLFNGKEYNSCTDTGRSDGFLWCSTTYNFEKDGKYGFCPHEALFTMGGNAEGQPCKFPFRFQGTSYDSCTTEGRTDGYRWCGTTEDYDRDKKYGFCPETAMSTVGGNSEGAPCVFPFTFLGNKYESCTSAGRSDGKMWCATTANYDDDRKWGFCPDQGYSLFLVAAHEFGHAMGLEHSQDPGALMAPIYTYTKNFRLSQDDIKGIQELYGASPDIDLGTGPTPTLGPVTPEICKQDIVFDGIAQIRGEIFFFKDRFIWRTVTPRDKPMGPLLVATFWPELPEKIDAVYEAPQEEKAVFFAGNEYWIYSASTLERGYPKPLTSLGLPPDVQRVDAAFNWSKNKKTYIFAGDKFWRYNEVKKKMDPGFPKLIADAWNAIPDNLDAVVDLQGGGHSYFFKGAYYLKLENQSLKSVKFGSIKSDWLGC
Sequence of Dual specificity protein kinase CLK2 (P49760 whole entry): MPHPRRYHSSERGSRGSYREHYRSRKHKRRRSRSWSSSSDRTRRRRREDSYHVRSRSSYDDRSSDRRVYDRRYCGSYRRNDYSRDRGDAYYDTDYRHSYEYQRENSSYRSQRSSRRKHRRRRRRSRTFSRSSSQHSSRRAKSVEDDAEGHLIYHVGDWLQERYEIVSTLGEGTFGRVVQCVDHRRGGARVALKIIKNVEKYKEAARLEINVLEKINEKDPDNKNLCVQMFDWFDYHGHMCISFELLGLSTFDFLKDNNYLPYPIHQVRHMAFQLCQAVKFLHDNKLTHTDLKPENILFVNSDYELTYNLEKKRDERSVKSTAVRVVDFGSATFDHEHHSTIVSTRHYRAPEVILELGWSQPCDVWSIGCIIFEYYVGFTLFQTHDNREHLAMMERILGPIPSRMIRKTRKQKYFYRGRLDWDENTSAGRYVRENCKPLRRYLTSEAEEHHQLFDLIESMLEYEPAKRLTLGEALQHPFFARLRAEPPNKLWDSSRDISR
Sequence of 26S proteasome non-ATPase regulatory subunit 14 (O00487 whole entry): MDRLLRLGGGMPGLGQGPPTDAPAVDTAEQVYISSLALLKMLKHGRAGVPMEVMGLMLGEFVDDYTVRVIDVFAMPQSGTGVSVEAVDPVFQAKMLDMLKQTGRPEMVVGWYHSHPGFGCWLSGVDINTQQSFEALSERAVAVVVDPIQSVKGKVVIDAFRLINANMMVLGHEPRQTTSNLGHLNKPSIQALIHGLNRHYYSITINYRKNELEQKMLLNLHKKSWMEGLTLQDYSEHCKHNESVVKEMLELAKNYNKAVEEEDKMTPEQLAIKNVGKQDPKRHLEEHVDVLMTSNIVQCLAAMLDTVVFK
Sequence of Dual specificity protein kinase CLK4 (Q9HAZ1 whole entry): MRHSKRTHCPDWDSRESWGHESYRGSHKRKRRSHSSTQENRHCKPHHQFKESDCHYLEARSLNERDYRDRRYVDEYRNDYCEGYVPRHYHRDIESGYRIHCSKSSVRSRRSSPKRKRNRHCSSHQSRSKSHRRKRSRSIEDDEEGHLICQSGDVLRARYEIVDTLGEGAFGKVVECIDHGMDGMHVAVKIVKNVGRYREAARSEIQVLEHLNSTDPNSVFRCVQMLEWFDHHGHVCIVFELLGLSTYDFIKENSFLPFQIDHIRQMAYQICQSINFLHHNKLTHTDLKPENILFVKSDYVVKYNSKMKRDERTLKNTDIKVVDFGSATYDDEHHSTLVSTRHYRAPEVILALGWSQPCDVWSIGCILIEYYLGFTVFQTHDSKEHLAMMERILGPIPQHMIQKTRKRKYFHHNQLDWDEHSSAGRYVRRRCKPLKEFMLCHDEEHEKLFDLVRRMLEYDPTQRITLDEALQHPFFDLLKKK

Q: Which EC50 [1] does the source give for `COC(=O)c1ccc(NC(=O)c2cn(-c3ccccc3)nc2-c2ccncc2)cc1` here?
A: 1.9 µM (active)

Q: And the EC50 [2]?
A: > 60 µM (not active)

Q: What about the AC50 [3] of the same compound?
A: 4.18 µM (active)

Q: And the IC50 [4]?
A: 17.2 µM (inactive)

Q: With `COc1ccc(NC(=O)C(c2cccc3ccccc23)n2c(=O)c(-c3ccco3)nc3ccccc32)cc1` (stereo not given) as the compound, how does the IC50 [5] read?
A: 25.5 µM (inactive)

Q: For `Cc1ccc(NC(=O)c2ccc(NCc3ccco3)c([N+](=O)[O-])c2)cc1Cl`, which EC50 [6] is on record?
A: > 99 µM (inactive)

Q: What about the EC50 [7] of the same compound?
A: > 99 µM (inactive)

Q: And the IC50 [4]?
A: 33.6 µM (inactive)

Q: For `COc1ccc(NC(=O)C(c2ccccc2)n2c(=O)c(-c3ccco3)nc3ccccc32)cc1` (stereo not given), which IC50 [5] is on record?
A: 12.8 µM (inactive)

Q: With `Cc1ccnc(NC(=O)CCC(=O)c2cccs2)c1` as the compound, how does the EC50 [8] read?
A: 4.73 µM (inconclusive)

Q: And the EC50 [9]?
A: 2.97 µM (active)

Q: And the EC50 [10]?
A: 2.36 µM (active)

Q: What about the AC50 (HEK293) of the same compound?
A: 3 µM (active)

Q: What about the AC50 [11] of the same compound?
A: > 52 µM (inactive)

Q: What about the AC50 [12] of the same compound?
A: 2.38 µM (active)

Q: And the AC50 [13]?
A: 2.17 µM (active)

Q: And the AC50 [14]?
A: 34.9 µM (active)

Q: Which AC50 [15] does the source give for `Oc1ccc2cc(SSc3ccc4cc(O)ccc4c3)ccc2c1` here?
A: 56.2 µM (inconclusive)

Q: For `Cc1ccc(C)c(OCCn2cc(/C=C(/C#N)C(=O)NCC3CCCO3)c3ccccc32)c1` (stereo not given), which IC50 [16] is on record?
A: 27.5 µM (active)

Q: What about the IC50 [17] of the same compound?
A: > 100 µM (inactive)

Q: And the IC50 (Prothrombin)?
A: 45.4 µM (active)

Q: For `O=c1[nH]c2ccc(Br)cc2n1-c1cc(Cl)c(O)cc1O`, which Ki [18] is on record?
A: 6.31 µM (active)

Q: What about the Ki [19] of the same compound?
A: 3.16 µM (active)

Q: What about the Ki [20] of the same compound?
A: 5.01 µM (active)

Q: For `COc1cc(Cl)c(OC)cc1N`, which AC50 [15] is on record?
A: 56.2 µM (inconclusive)
